Article PMC12198282, “Application of a high-density microelectrode array assay using a 3D human iPSC-derived brain microphysiological system model for in vitro neurotoxicity screening of environmental compounds” (Archives of Toxicology, 2025)
Read-outs that look alike come from different tables or passages of the source.

What was measured:
[1] = system: human iPSC-derived 3D BrainSpheres; experiment: BrainSphere MEA assay (HD-MEA, 13-day exposure, concentration-response); format: cell-based; details: for EC (benchmark response 1.349 SD): 312 h; for hitc Mean.Spheroid.Burst.Duration: key: 1 (active); 0 (inactive); for hitc Mean.Spheroid.Burst.ISI: key: 1 (active); 0 (inactive); for hitc Mean.Spheroid.Burst.Peak.Firing.Rate: key: 1 (active); 0 (inactive); for hitc Mean.Spheroid.Firing.Rate: key: 1 (active); 0 (inactive); for hitc Mean.Spheroid.IBI: key: 1 (active); 0 (inactive); for hitc Mean.Spheroid.Nonburst.ISI: key: 1 (active); 0 (inactive); for hitc Mean.Spheroid.Spikes.per.Burst.per.Electrode: key: 1 (active); 0 (inactive); for hitc Mean.Spheroid.Spikes.per.Burst: key: 1 (active); 0 (inactive); for hitc Spheroid.Burst.Frequency: key: 1 (active); 0 (inactive); for hitc Spheroid.Spike.Amplitude.90th.Percentile: key: 1 (active); 0 (inactive)
Description: A volume of 1 ml of Tergazyme (1% solution in deionized water) was added to each well of the MaxTwo 6-Well Plate (MaxWell Biosystems) and incubated overnight under constant gyratory shaking (88 RPM) at 37 °C and 5% CO2. The next day, Tergazyme solution was removed, and plates were washed with distilled water and ethanol. After remaining ethanol was evaporated, wells were washed with PBS. Then, 200 µl of Poly-D-Lysine (Gibco, A38904 - 01) was added on top of the electrodes and incubated at 37 °C and 5% CO2 for 3 h (humidified). Poly-D-Lysine was then removed, and wells were coated with 100 µl of 0.1 mg/ml laminin coating solution (Sigma-Aldrich, L2020 - 1 mg) and incubated for 2 h at 37 ℃ and 5% CO2 (humidified). The laminin was removed after incubation. Using a 1 ml micropipette, 1 ml of medium containing BrainSpheres (7 weeks differentiated), approximately 25 BrainSpheres per ml, was plated on top of the HD-MEA chip (Fig. 1A). Afterwards, the plate was placed in an incubator at 37 °C and 5% CO2 and moved in circles to accumulate the BrainSpheres on top of the electrode area (Fig. 1A). The plate was kept in an incubator (humidified) for 2 days to allow attachment of the BrainSpheres with no gyratory shaking of the plates.
The MaxTwo high-density microelectrode array system (MaxWell Biosystems AG, Zurich, Switzerland) was used to measure neural activity with MaxTwo 6-well plates, where every well includes an integrated chip with 26,400 platinum electrodes arranged in an area of 3.85 × 2.10 mm^2 ([…]) (Muller et al. [2015]). The data were recorded and analyzed with the MaxLab Live Software (version 22.2.22). First, the MaxLab live ActivityScan Assay was used to identify the activity and positioning of the BrainSpheres on the array by scanning all the 26,400 electrodes in 29 configurations in a well (Assay Parameters: Configuration = Full; Recording time per configuration = 60 s (s)). The settings gain = 512, high-pass-filter (HPF): ~ 1 Hz and spike threshold = 5 X root-mean square (RMS) noise were used for all HD-MEA recordings. Circular regions of interest (ROI) were manually selected in the Activity Map where neuronal activity was apparent by an increased activity (Fig. 2). Over the course of the 13-day experiment, the same selected regions and electrodes were measured using the MaxLab Live Network Assay (600 s recording time).
A custom analysis framework was used to extract the MaxLab Live neuronal metrics for the individual BrainSpheres. For this, electrodes comprising a single ROI (i.e., individual BrainSphere; Fig. 2D) were grouped using distance-based clustering (fcluster method of Scipy library, Python 3.7) and neural metrics were calculated for the clustered electrodes for every ROI separately. Figure 2E presents a raster plot illustrating the activity associated with individual Regions of Interest (ROIs). […] Ten MaxLab Live neural metrics (endpoints) were evaluated from the MaxLab live ActivityScan and Network Assay in this study. See Table 3 for the endpoint definitions, tuned parameters, and activity type (general versus network connectivity).
The BrainSphere MEA assay measured changes in neural activity during a 13-day chemical exposure. The first recording day of the concentration–response screening protocol (day of exposure (DOE) 0) occurred after 7 weeks of BrainSphere differentiation, 48 h after plating on HD-MEA plates (Fig. 1B). The study included at least three biological replicates (one well per plate) from separate experiments (e.g., three different plates on three different days) and each well included multiple BrainSpheres which were considered technical replicates.

2D rat cortical cultures = details: cited from earlier work; for hitc CCTE Shafer MEA dev active electrodes number: key: 1 (active); 0 (inactive); for hitc CCTE Shafer MEA dev burst duration mean: key: 1 (active); 0 (inactive); for hitc CCTE Shafer MEA dev burst rate: key: 1 (active); 0 (inactive); for hitc CCTE Shafer MEA dev bursting electrodes number: key: 1 (active); 0 (inactive); for hitc CCTE Shafer MEA dev correlation coefficient mean: key: 1 (active); 0 (inactive); for hitc CCTE Shafer MEA dev firing rate mean: key: 1 (active); 0 (inactive); for hitc CCTE Shafer MEA dev inter network spike interval mean: key: 1 (active); 0 (inactive); for hitc CCTE Shafer MEA dev interburst interval mean: key: 1 (active); 0 (inactive); for hitc CCTE Shafer MEA dev mutual information norm: key: 1 (active); 0 (inactive); for hitc CCTE Shafer MEA dev network spike duration std: key: 1 (active); 0 (inactive); for hitc CCTE Shafer MEA dev network spike number: key: 1 (active); 0 (inactive); for hitc CCTE Shafer MEA dev network spike peak: key: 1 (active); 0 (inactive); for hitc CCTE Shafer MEA dev per burst interspike interval: key: 1 (active); 0 (inactive); for hitc CCTE Shafer MEA dev per burst spike percent: key: 1 (active); 0 (inactive); for hitc CCTE Shafer MEA dev per network spike spike number mean: key: 1 (active); 0 (inactive); for hitc CCTE Shafer MEA dev per network spike spike percent: key: 1 (active); 0 (inactive); for hitc CCTE Shafer MEA dev spike duration mean: key: 1 (active); 0 (inactive)

CN(C)C(=O)C(CCN1CCC(O)(c2ccc(Cl)cc2)CC1)(c1ccccc1)c1ccccc1 [Loperamide]
ACC Mean.Spheroid.Burst.Duration [1]: 0.076 µM | ACC Mean.Spheroid.Burst.ISI [1]: 0.019 µM | ACC Mean.Spheroid.Burst.Peak.Firing.Rate [1]: 0.065 µM | ACC Mean.Spheroid.Firing.Rate [1]: 0.036 µM | ACC Mean.Spheroid.IBI [1]: 0.9 µM | ACC Mean.Spheroid.Nonburst.ISI [1]: 0.97 µM | ACC Mean.Spheroid.Spikes.per.Burst [1]: 0.08 µM | ACC Mean.Spheroid.Spikes.per.Burst.per.Electrode [1]: 0.082 µM | ACC Spheroid.Burst.Frequency [1]: 0.026 µM | ACC Spheroid.Spike.Amplitude.90th.Percentile [1]: 6.6 µM | BMD Mean.Spheroid.Burst.Duration [1]: 0.087 µM | BMD Mean.Spheroid.Burst.Peak.Firing.Rate [1]: 0.071 µM | BMD Mean.Spheroid.Firing.Rate [1]: 0.025 µM | BMD Mean.Spheroid.IBI [1]: 0.83 µM | BMD Mean.Spheroid.Spikes.per.Burst [1]: 0.054 µM | BMD Mean.Spheroid.Spikes.per.Burst.per.Electrode [1]: 0.07 µM | BMD Spheroid.Burst.Frequency [1]: 0.031 µM | BMD Spheroid.Spike.Amplitude.90th.Percentile [1]: 2.6 µM | Bioactivity trend over time for MFR, mean spike amplitude and burst frequency (qualitative) [1]: appeared to decrease activity | Difference of minimum potency between BrainSphere MEA assay and rNFA [1]: ≤ 0.5 log10 µM | Percent active [1]: 100% | hitc Mean.Spheroid.Burst.Duration [1]: 1 | hitc Mean.Spheroid.Burst.ISI [1]: 1 | hitc Mean.Spheroid.Burst.Peak.Firing.Rate [1]: 1 | hitc Mean.Spheroid.Firing.Rate [1]: 1 | hitc Mean.Spheroid.IBI [1]: 1 | hitc Mean.Spheroid.Nonburst.ISI [1]: 1 | hitc Mean.Spheroid.Spikes.per.Burst [1]: 1 | hitc Mean.Spheroid.Spikes.per.Burst.per.Electrode [1]: 1 | hitc Spheroid.Burst.Frequency [1]: 1 | hitc Spheroid.Spike.Amplitude.90th.Percentile [1]: 1 | EC (benchmark response 1.349 SD) ([1]; Homo sapiens, read-out: BMD Mean.Spheroid.Burst.ISI): 0.04 µM | EC (benchmark response 1.349 SD) ([1]; Homo sapiens, read-out: BMD Mean.Spheroid.Nonburst.ISI): 0.95 µM | AC50 ([1]; Homo sapiens, read-out: ac50 Mean.Spheroid.Burst.Duration): 140 nM | AC50 ([1]; Homo sapiens, read-out: ac50 Mean.Spheroid.Burst.ISI): 100 nM | AC50 ([1]; Homo sapiens, read-out: ac50 Mean.Spheroid.Burst.Peak.Firing.Rate): 120 nM | AC50 ([1]; Homo sapiens, read-out: ac50 Mean.Spheroid.Firing.Rate): 23 nM | AC50 ([1]; Homo sapiens, read-out: ac50 Mean.Spheroid.IBI): 910 nM | AC50 ([1]; Homo sapiens, read-out: ac50 Mean.Spheroid.Nonburst.ISI): 990 nM | AC50 ([1]; Homo sapiens, read-out: ac50 Mean.Spheroid.Spikes.per.Burst): 73 nM | AC50 ([1]; Homo sapiens, read-out: ac50 Mean.Spheroid.Spikes.per.Burst.per.Electrode): 94 nM | AC50 ([1]; Homo sapiens, read-out: ac50 Spheroid.Spike.Amplitude.90th.Percentile): 8900 nM | AC50 ([1]; read-out: ac50 Mean.Spheroid.Burst.Duration): 145 nM | AC50 ([1]; read-out: ac50 Mean.Spheroid.Burst.ISI): 103 nM | AC50 ([1]; read-out: ac50 Mean.Spheroid.Burst.Peak.Firing.Rate): 115 nM | AC50 ([1]; read-out: ac50 Mean.Spheroid.Nonburst.ISI): 989 nM | AC50 ([1]; read-out: ac50 Spheroid.Spike.Amplitude.90th.Percentile): 8930 nM | Bioactivity in the rNFA (in words) (2D rat cortical cultures): alter multiple parameters of network formation | hitc CCTE_Shafer_MEA_dev_active_electrodes_number (2D rat cortical cultures): 1 | hitc CCTE_Shafer_MEA_dev_burst_duration_mean (2D rat cortical cultures): 1 | hitc CCTE_Shafer_MEA_dev_burst_rate (2D rat cortical cultures): 1 | hitc CCTE_Shafer_MEA_dev_bursting_electrodes_number (2D rat cortical cultures): 1 | hitc CCTE_Shafer_MEA_dev_correlation_coefficient_mean (2D rat cortical cultures): 1 | hitc CCTE_Shafer_MEA_dev_firing_rate_mean (2D rat cortical cultures): 1 | hitc CCTE_Shafer_MEA_dev_inter_network_spike_interval_mean (2D rat cortical cultures): 0 | hitc CCTE_Shafer_MEA_dev_interburst_interval_mean (2D rat cortical cultures): 1 | hitc CCTE_Shafer_MEA_dev_mutual_information_norm (2D rat cortical cultures): 1 | hitc CCTE_Shafer_MEA_dev_network_spike_duration_std (2D rat cortical cultures): 1 | hitc CCTE_Shafer_MEA_dev_network_spike_number (2D rat cortical cultures): 1 | hitc CCTE_Shafer_MEA_dev_network_spike_peak (2D rat cortical cultures): 1 | hitc CCTE_Shafer_MEA_dev_per_burst_interspike_interval (2D rat cortical cultures): 1 | hitc CCTE_Shafer_MEA_dev_per_burst_spike_percent (2D rat cortical cultures): 1 | hitc CCTE_Shafer_MEA_dev_per_network_spike_spike_number_mean (2D rat cortical cultures): 1 | hitc CCTE_Shafer_MEA_dev_per_network_spike_spike_percent (2D rat cortical cultures): 1 | hitc CCTE_Shafer_MEA_dev_spike_duration_mean (2D rat cortical cultures): 1 | AC50 (2D rat cortical cultures; read-out: ac50 CCTE_Shafer_MEA_dev_active_electrodes_number): 196 nM | AC50 (2D rat cortical cultures; read-out: ac50 CCTE_Shafer_MEA_dev_burst_duration_mean): 33 nM | AC50 (2D rat cortical cultures; read-out: ac50 CCTE_Shafer_MEA_dev_burst_rate): 42 nM | AC50 (2D rat cortical cultures; read-out: ac50 CCTE_Shafer_MEA_dev_bursting_electrodes_number): 117 nM | AC50 (2D rat cortical cultures; read-out: ac50 CCTE_Shafer_MEA_dev_correlation_coefficient_mean): 766 nM | AC50 (2D rat cortical cultures; read-out: ac50 CCTE_Shafer_MEA_dev_firing_rate_mean): 63 nM | AC50 (2D rat cortical cultures; read-out: ac50 CCTE_Shafer_MEA_dev_interburst_interval_mean): 249 nM | AC50 (2D rat cortical cultures; read-out: ac50 CCTE_Shafer_MEA_dev_mutual_information_norm): 112 nM | AC50 (2D rat cortical cultures; read-out: ac50 CCTE_Shafer_MEA_dev_network_spike_duration_std): 262 nM | AC50 (2D rat cortical cultures; read-out: ac50 CCTE_Shafer_MEA_dev_network_spike_number): 33 nM | AC50 (2D rat cortical cultures; read-out: ac50 CCTE_Shafer_MEA_dev_network_spike_peak): 1810 nM | AC50 (2D rat cortical cultures; read-out: ac50 CCTE_Shafer_MEA_dev_per_burst_interspike_interval): 67 nM | AC50 (2D rat cortical cultures; read-out: ac50 CCTE_Shafer_MEA_dev_per_burst_spike_percent): 244 nM | AC50 (2D rat cortical cultures; read-out: ac50 CCTE_Shafer_MEA_dev_per_network_spike_spike_number_mean): 766 nM | AC50 (2D rat cortical cultures; read-out: ac50 CCTE_Shafer_MEA_dev_per_network_spike_spike_percent): 2300 nM | AC50 (2D rat cortical cultures; read-out: ac50 CCTE_Shafer_MEA_dev_spike_duration_mean): 511 nM
